Measured values: ChEMBL document CHEMBL1155621, “Asitrocin, (2,4)-cis- and trans-asitrocinones: novel bioactive mono-tetrahydrofuran acetogenins from Asimina triloba seeds” (J Nat Prod, 2000)
Values after ≈ are worked out from the molar mass of the structure shown.

Key:
[1] = Toxicity in brine shrimp; format: organism-based; conditions: artemia, in vivo
A549 = experiment: Cytotoxicity against human A549 cells after 7 days by MTT assay; format: functional; conditions: A549, 168 h, read-out: ED50 (the source's name)
MCF7 = experiment: Cytotoxicity against human MCF7 cells after 7 days by MTT assay; format: functional; conditions: MCF7, 168 h, read-out: ED50 (the source's name)
HT-29 = experiment: Cytotoxicity against human HT29 cells after 7 days by MTT assay; format: functional; conditions: HT-29, 168 h, read-out: ED50 (the source's name)
A498 = experiment: Cytotoxicity against human A498 cells after 7 days by MTT assay; format: functional; conditions: A498, 168 h, read-out: ED50 (the source's name)
PC-3 = experiment: Cytotoxicity against human PC3 cells after 7 days by MTT assay; format: functional; conditions: PC-3, 168 h, read-out: ED50 (the source's name)
MIA PaCa-2 = experiment: Cytotoxicity against human MiaPaCa2 cells after 7 days by MTT assay; format: functional; conditions: MIA PaCa-2, 168 h, read-out: ED50 (the source's name)

SMILES	LC50 [1] [ng/mL]	EC50 (A549) [ng/mL]	EC50 (MCF7) [ng/mL]	EC50 (HT-29) [ng/mL]	EC50 (A498) [ng/mL]	EC50 (PC-3) [ng/mL]	EC50 (MIA PaCa-2) [ng/mL]
CCCCCCCCCCCC[C@@H](O)[C@H]1CC[C@H]([C@@H](O)CC[C@H](O)CCCCCCC[C@@H](O)CC2=C[C@H](C)OC2=O)O1 [ASITROCIN]	63 (≈ 106 nM)	118 (≈ 198 nM)	3280 (≈ 5500 nM)	2.99 (≈ 5.01 nM)	79.2 (≈ 133 nM)	1.22 (≈ 2.04 nM)	0.0148 (≈ 0.0248 nM)
COc1cccc2c1C(=O)c1c(O)c3c(c(O)c1C2=O)C[C@@](O)(C(=O)CO)C[C@@H]3O[C@H]1C[C@H](N)[C@H](O)[C@H](C)O1 [DOXORUBICIN]							6.1 (≈ 11.2 nM)
